Consider one compound from patent publication US20030175678A1, “Methods for identifying genes regulating desired cell phenotypes” (priority 2001, published 2003).

Experiment [1] relates to terpene cyclases. Put plainly: PCR with degenerate terpene cyclase primers in Ajuga reptans cultures. Type of experiment: cell-based. The settings on record: 24 hour post-treatment cultures.
The test system of experiment [2] is PAL, CHS, and F3-OH. Put plainly: Quantitative RT-PCR of PAL, CHS and F3-OH transcripts in C. barkleyi cells. Type of experiment: cell-based, Crassula barkleyi. The settings on record: after 24 hours of treatment, relative to TBP. The method, then: Differential induction of mRNA transcripts associated with the synthesis of catechin derivatives in the C. barkleyi suspension culture (as described in Example 2) and the C. dejecta suspension culture (as described in Example 3) were performed in 250 mL conical flasks containing 100 mL of a secondary metabolite production medium B49 (Gamborg's B5, 5% sucrose, no hormones), inoculated with 16 mL of a 14 day old suspension culture (C. barkleyi) or 40 mL of a 21 day old suspension culture (C. dejecta). The cultures were incubated under low light conditions (approximately 30 lux) at 25° C.
Induction of mRNA usually occurs within 48 hours of receipt of an inducing signal. Accordingly, samples were taken at intervals of 2, 4, 6, 10, 15, 24, and 48 hours following the above treatments. Samples, sufficient to give at least 1 mL packed cell volume, were centrifuged for five minutes at 4000 rpm and the supernatant removed. […]
This mixture was incubated at 42° C. for 50 min then denatured at 70° C. for 15 min and stored at −20° C., after a thirty-fold dilution with distilled water. An aliquot of this reaction was then used to quantify the relative abundance of each of the three genes (PAL, CHS, F3-OH) to the invariant one (TBP), using a real time quantification PCR machine (Perkin Elmer 7700) and the previously described oligonucleotides (shown in FIG. 7) in the following conditions: […]

The subject of experiment [3] is taxadiene synthase. Put plainly: PCR of taxadiene synthase in Taxus baccata callus cultures. Conditions: callus harvested 24 and 48 hours after treatment, 20-25 PCR cycles. The format is cell-based. The method, then: Callus was harvested 24 and 48 hours after treatment. An untreated control was also harvested. Samples (500 mg) were frozen in liquid nitrogen and ground to a fine powder. RNA was prepared with an RNEASY™ kit (Qiagen, Valencia, Calif.) as described above.
RNA samples (1.75 μg) from 24 hours post-treatment cultures of Taxus baccata were reverse transcribed using an OMNISCRIPT™ RT kit (Qiagen) with an oligo-dT12-18 primer (Sigma-Aldrich Company, Poole, Dorset, UK). Aliquots (≡0.175 μg RNA) were subject to PCR using a Taq PCR Master Mix kit (Qiagen). Primers were designed from conserved regions of the taxadiene synthases from Taxus chinensis and Taxus brevifolia, and validated by amplification of DNA from Taxus baccata. PCR was carried out at an annealing temperature of 50° C. for 30′; extension was for 1 min at 72° C. Samples were taken after 15, 20, 25, and 30 cycles and run on an agarose gel (FIG. 13). After 20 cycles, a band of the expected size is present in the treated samples (slightly more in the 24 hour harvest) but not in the control.

Experiment [4] concerns S. tectorum suspension culture. Put plainly: Catechin profiling in Sempervivum tectorum suspension culture. Type of experiment: cell-based. The settings on record: B49 medium, added on day 7. The method, then:
Catechin derivative profiles in the S. tectorum suspension culture were obtained from incubations in 250 mL conical flasks containing either 100 mL of B88 growth medium or 100 mL of a secondary metabolite production medium B49 (Gamborg's B5 modified to contain 5% sucrose and no hormones) inoculated with 40 mL of 21 day old suspension culture. The cultures were incubated under low light conditions (approximately 30 lux) at 25° C.
Ten milliliters of culture samples were taken at regular intervals for 16 days following the day of subculture to B88 or B49 medium. All culture samples were centrifuged for five minutes at 4000 rpm and the supernatant liquid was removed and frozen. The cell residue was freeze-dried. Extraction, sample preparation, and HPLC analysis were performed as described in Example 1.

The test system of experiment [5] is terpene cyclase. Put plainly: RT-PCR of terpene cyclase in Ajuga reptans cultures. The settings on record: 24 hours after treatment. The format is cell-based. How it is done: To investigate the pattern of regulation of the terpene cyclase identified as described above, primers were synthesized that corresponded to sequence at each end of the RACE fragment. Ajuga reptans cultures were subject to the treatments described above, and RNA collected eight and 24 hours after treatment. RT-PCR was carried out using an […]™ One-Step RT-PCR kit (Clontech Laboratories, Palo Alto, Calif.). […] The primers also appear to be amplifying a constitutive cyclase.

`CC/C=C\CC1C(=O)CCC1CC(=O)OC` (stereo not drawn) [methyl jasmonate]: in experiment [1], the “PCR band of first degenerate primer combination” value is “induced” and the “PCR band of second degenerate primer combination (candidate cyclase for compound 6)” value is recorded as “not”. For the same compound, the “induction of transcription of PAL, CHS, and F3-OH” value in experiment [2] is “at least twenty fold”. In addition, the “induction of taxadiene cyclase” value in experiment [3] is reported as “specific induction of the taxadiene cyclase”. Further, in experiment [4], the catechin level result is given as “no further increase in catechin level”. Besides, the “induction of terpene cyclase (RT-PCR)” value in experiment [5] is recorded as “induced”.
